Data: paper PMC4767442 (Oncotarget, 2015)

How the values were obtained:
[1] = set-up: method as in PMID 21658021; settings: cited from earlier work
[2] = tested on: cellular labile iron pools; test: Fluorimetric calcein-AM assay of intracellular iron chelation; format: cell-based; settings: 10 μmol·L^−1
Description: Iron chelation efficiency of the compounds at a concentration of 10 μmol·L^−1 was determined via 3 methods: (1) the calcein assay; (2) the ability of the ligands to induce ^59Fe mobilization from cells prelabeled with ^59Fe-transferrin; and (3) the efficacy of these agents to inhibit the uptake of ^59Fe from ^59Fe-transferrin [22, 38–40].
The fluorimetric calcein-AM assay was performed by established methods, as described previously. The Fe chelation efficiency of the metabolites in cells was expressed as a percentage of that of the parent chelator, Dp44mT or DpC (100%). For studies assessing the ability of these agents to induce ^59Fe mobilization and inhibit ^59Fe uptake from ^59Fe-transferrin by cells, human transferrin (Sigma-Aldrich, Germany) was labeled with ^59Fe (PerkinElmer, MA, USA) to generate ^59Fe-transferrin at a final specific activity of 500 pCi/pmol Fe, as previously described. The unbound ^59Fe was removed by exhaustive vacuum dialysis against a large excess of 0.15 M NaCl buffered to pH 7.4 with 1.4% NaHCO3 by standard methods.

[3] = Long-term stability in plasma samples at -80°C; format: in vitro ADME, rat; settings: for Long-term stability: plasma, -80°C, 7 days; for decomposition on storage (in words): up to 7 days stored at −80°C
Description: The UHPLC-MS/MS methods for quantitative assays were validated with respect to selectivity, linearity, precision, accuracy, stability, recovery, matrix effects and dilution integrity (see […]
Linearity was examined over the concentration ranges described in Supplementary Table 1 using a weighted (1/x 2) linear regression in GraphPad Prism 6 (v. 6.04, GraphPad Software […]
Stability was assessed at low, medium and high concentration levels. Long -term stability was assessed for plasma samples at -80°C over a period of 7 days (three aliquots per level; Supplementary Table 3). […]

[4] = tested on: H9c2 heart-derived myoblasts; test: In-vitro metabolism of the drugs in H9c2 cells (HPLC-MS); format: in vitro ADME, rat; settings: H9c2, 10 μmol·L^−1, 12 h, 37°C
Description: Breast cancer cells (MCF-7) and H9c2 heart-derived myoblasts were seeded in 100-mm Petri dishes (1,000,000 cells/dish) for 24 h/37°C. Freshly prepared stock solutions of Dp44mT and DpC in DMSO (Sigma-Aldrich, Germany) were diluted in culture medium to the required working concentration.
The cells were incubated for 12 h (37°C) with either Dp44mT or DpC at a concentration of 10 μmol·L^−1. After this incubation, the cells were harvested, washed twice with ice-cold PBS buffer, centrifuged (790 x g) and precipitated with acetonitrile (200 μL/10^6 cells) prior to the analysis. The overlaying medium was also analyzed to search for possible metabolites. […] All samples were analyzed using HPLC-MS as described below in the Section: HPLC-MS method to identify metabolites of the drugs.
To search for the metabolites, plasma was precipitated with methanol or acetonitrile (plasma/solvent ratio – 1:3, v/v), treated using solid phase extraction (SPE; Discovery DSC-PH, Supelco, PA, U.S.A.), or liquid-liquid extraction with various solvents (ethyl acetate, toluene, dichloromethane). […] These samples were then analyzed using HPLC-MS with ion trap mass analyzer implementing the settings described previously with minor modifications (for details of the analyses see Supplementary Material, part 2.1). […]

[5] = tested on: oxyhemoglobin in red blood cells; set-up: method as in PMID 22508546; settings: cited from earlier work
[6] = high concentration level (2.105-3.115 µmol·L-1)
[7] = low concentration level (0.035-0.156 µmol·L-1)
[8] = medium concentration level (0.702-1.558 µmol·L-1)

Long-term stability [3, 6] [%] | Long-term stability [3, 7] [%] | Long-term stability [3, 8] [%] | decomposition on storage (in words) [3] | metabolism in heart-derived myoblasts [4] | Compound | toxicity after oral administration [1] | intracellular Fe chelation efficacy (in words) [2] | oxidation of oxyhemoglobin to methemoglobin [5]
94.93 | 112.56 | 108.06 | No significant decomposition | do not undergo significant metabolism | CN(C)C(=S)NN=C(c1ccccn1)c1ccccn1 [Dp44mT, di(2-pyridyl)ketone 4,4-dimethyl-3-thiosemicarbazone] | toxic after oral administration | high intracellular chelation efficacy | –
112.39 | 85.12 | 87.76 | No significant decomposition | do not undergo significant metabolism | CN(C(=S)NN=C(c1ccccn1)c1ccccn1)C1CCCCC1 [DpC, di(2-pyridyl)ketone 4-cyclohexyl-4-methyl-3-thiosemicarbazone] | – | comparable to Dp44mT | does not induce oxidation of oxyhemoglobin to methemoglobin
